What all share (test): relative viability (nuclei count vs DMSO), 5 days (fraction); higher = more cells survive
Compound in the test “R406 + Tozasertib”: COc1cc(Nc2ncc(F)c(Nc3ccc4c(n3)NC(=O)C(C)(C)O4)n2)cc(OC)c1OC [R406] + Cc1cc(Nc2cc(N3CCN(C)CC3)nc(Sc3ccc(NC(=O)C4CC4)cc3)n2)n[nH]1 [Tozasertib] (partner 0.1 µM)
Put shortly:
(§1)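 Dosing by pin tool came one day after lung cancer cell lines were seeded in 1536-well plates, using either one drug or a fixed anchor-drug dose plus five library-drug doses (not always all listed) in √10 steps. After 5 days, nuclei were counted on 4× images. Relative viability is treated-well nuclei count divided by vehicle-well nuclei count, and values are medians of duplicate plates.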

Compound in the test “Daporinad + Bortezomib”: O=C(/C=C/c1cccnc1)NCCCCC1CCN(C(=O)c2ccccc2)CC1 [Daporinad] + CC(C)C[C@H](NC(=O)[C@H](Cc1ccccc1)NC(=O)c1cnccn1)B(O)O [Bortezomib] (partner 0.002 µM)
Put shortly:
as §1

Compound in the test “Daporinad + Foretinib”: O=C(/C=C/c1cccnc1)NCCCCC1CCN(C(=O)c2ccccc2)CC1 [Daporinad] + COc1cc2c(Oc3ccc(NC(=O)C4(C(=O)Nc5ccc(F)cc5)CC4)cc3F)ccnc2cc1OCCCN1CCOCC1 [Foretinib] (partner 0.25 µM)
Put shortly:
as §1

Compound in the test “Daporinad + Linsitinib”: O=C(/C=C/c1cccnc1)NCCCCC1CCN(C(=O)c2ccccc2)CC1 [Daporinad] + C[C@]1(O)C[C@@H](c2nc(-c3ccc4ccc(-c5ccccc5)nc4c3)c3c(N)nccn32)C1 [Linsitinib] (partner 1 µM)
Put shortly:
as §1

Take ABC-1: the relative viability amounted to 0.167 with R406 + Tozasertib (first compound 0.08 µM); 0.16 in the test with R406 + Tozasertib (first compound 0.253 µM); 0.162 with R406 + Tozasertib (first compound 0.8 µM); 0.158 with R406 + Tozasertib (first compound 2.53 µM); 0.14 with R406 + Tozasertib (first compound 8 µM); 0.265 with Daporinad + Bortezomib (first compound 0.0005 µM). Besides, the relative viability worked out at 0.32 in the test with Daporinad + Bortezomib (first compound 0.001581 µM); 0.312 with Daporinad + Bortezomib (first compound 0.005 µM); 0.309 in the test with Daporinad + Bortezomib (first compound 0.01581 µM); 1.09 with Daporinad + Foretinib (first compound 0.0005 µM); 1.01 in the test with Daporinad + Foretinib (first compound 0.001581 µM); 1.01 with Daporinad + Foretinib (first compound 0.005 µM). Moreover, the relative viability in the test with Daporinad + Foretinib (first compound 0.01581 µM) worked out at 0.662; with Daporinad + Linsitinib (first compound 0.0005 µM), 0.887; with Daporinad + Linsitinib (first compound 0.001581 µM), 1.04; with Daporinad + Linsitinib (first compound 0.005 µM), 0.882; in the test with Daporinad + Linsitinib (first compound 0.01581 µM), 0.792.

Turning to NCI-H1666, the relative viability in the test with R406 + Tozasertib (first compound 0.08 µM) amounted to 0.584; with R406 + Tozasertib (first compound 0.253 µM), 0.725; with R406 + Tozasertib (first compound 0.8 µM) it was 0.582; with R406 + Tozasertib (first compound 2.53 µM) it was 0.633; with R406 + Tozasertib (first compound 8 µM) it was 0.418; with Daporinad + Bortezomib (first compound 0.0005 µM) it was 0.846. The relative viability with Daporinad + Bortezomib (first compound 0.001581 µM) came out at 0.93; with Daporinad + Bortezomib (first compound 0.005 µM), 0.9; in the test with Daporinad + Bortezomib (first compound 0.01581 µM), 0.742; in the test with Daporinad + Foretinib (first compound 0.0005 µM), 0.962; in the test with Daporinad + Foretinib (first compound 0.001581 µM), 0.958; with Daporinad + Foretinib (first compound 0.005 µM), 0.91. The relative viability stood at 0.943 in the test with Daporinad + Foretinib (first compound 0.01581 µM); 0.834 with Daporinad + Linsitinib (first compound 0.0005 µM); 0.764 with Daporinad + Linsitinib (first compound 0.001581 µM); 0.747 with Daporinad + Linsitinib (first compound 0.005 µM); 0.839 in the test with Daporinad + Linsitinib (first compound 0.01581 µM).

For NCI-H1993, the relative viability was found to be 0.597 with R406 + Tozasertib (first compound 0.08 µM); 0.536 with R406 + Tozasertib (first compound 0.253 µM); 0.605 with R406 + Tozasertib (first compound 0.8 µM); 0.493 in the test with R406 + Tozasertib (first compound 2.53 µM); 0.432 with R406 + Tozasertib (first compound 8 µM); 0.919 with Daporinad + Bortezomib (first compound 0.0005 µM). The relative viability is 1.21 with Daporinad + Bortezomib (first compound 0.001581 µM); 1.09 in the test with Daporinad + Bortezomib (first compound 0.005 µM); 1.12 with Daporinad + Bortezomib (first compound 0.01581 µM); 0.749 in the test with Daporinad + Foretinib (first compound 0.0005 µM); 0.741 in the test with Daporinad + Foretinib (first compound 0.001581 µM); 0.746 in the test with Daporinad + Foretinib (first compound 0.005 µM). The relative viability stood at 0.918 with Daporinad + Foretinib (first compound 0.01581 µM); 0.703 in the test with Daporinad + Linsitinib (first compound 0.0005 µM); 0.715 with Daporinad + Linsitinib (first compound 0.001581 µM); 0.782 in the test with Daporinad + Linsitinib (first compound 0.005 µM); 0.77 with Daporinad + Linsitinib (first compound 0.01581 µM).

For NCI-H1975, the relative viability was found to be 0.75 in the test with R406 + Tozasertib (first compound 0.08 µM); 0.918 with R406 + Tozasertib (first compound 0.253 µM); 0.785 with R406 + Tozasertib (first compound 0.8 µM); 0.189 with R406 + Tozasertib (first compound 2.53 µM); 0.109 with R406 + Tozasertib (first compound 8 µM); 0.397 with Daporinad + Bortezomib (first compound 0.0005 µM). Further, the relative viability with Daporinad + Bortezomib (first compound 0.001581 µM) amounted to 0.395; with Daporinad + Bortezomib (first compound 0.005 µM), 0.332; with Daporinad + Bortezomib (first compound 0.01581 µM), 0.402; with Daporinad + Foretinib (first compound 0.0005 µM), 0.892; with Daporinad + Foretinib (first compound 0.001581 µM), 0.952; in the test with Daporinad + Foretinib (first compound 0.005 µM) it was 0.966. Besides, the relative viability with Daporinad + Foretinib (first compound 0.01581 µM) stood at 0.931; in the test with Daporinad + Linsitinib (first compound 0.0005 µM), 1.14; with Daporinad + Linsitinib (first compound 0.001581 µM) it was 0.99; in the test with Daporinad + Linsitinib (first compound 0.005 µM), 0.92; with Daporinad + Linsitinib (first compound 0.01581 µM) it was 0.812.

For the origin of these results see the supplement of paper PMC10307832.
